Structures can show the parent of a compound that is named as a salt. Where two headings read alike, the source gives them in different places.
Target: human KAT II (hKAT II) enzyme (Homo sapiens, UniProt Q8N5Z0)
Assay: KAT II Inhibition Spectra Assay
Type: biochemical
Conditions: hKAT II, decrease in OD370, 37° C., 15-20 h, read-out: KATII IC50
How it was run: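 hKAT II (15 nM, 3× stock) converts L-kynurenine (3 mM, 3× stock) with α-ketoglutarate and PLP in Tris acetate; 15–20 h at 37 °C. Inhibition of the OD370 decrease read versus DMSO wells across a concentration range gives IC50.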

Sequence of human KAT II (hKAT II) enzyme (Q8N5Z0 30-425): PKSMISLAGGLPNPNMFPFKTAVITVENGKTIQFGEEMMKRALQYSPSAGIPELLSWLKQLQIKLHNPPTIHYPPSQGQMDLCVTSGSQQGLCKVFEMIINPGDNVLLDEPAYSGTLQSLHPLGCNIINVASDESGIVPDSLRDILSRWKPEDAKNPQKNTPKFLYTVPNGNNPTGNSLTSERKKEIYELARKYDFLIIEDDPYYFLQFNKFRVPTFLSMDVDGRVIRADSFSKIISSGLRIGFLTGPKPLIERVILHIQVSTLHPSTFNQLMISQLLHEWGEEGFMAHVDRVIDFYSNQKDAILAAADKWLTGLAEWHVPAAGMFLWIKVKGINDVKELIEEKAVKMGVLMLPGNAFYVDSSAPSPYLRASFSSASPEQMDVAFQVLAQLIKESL

Work on `NC1Cc2cccc(C(F)(F)F)c2N(O)C1=O` (stereo not drawn) [Example 3, 3-amino-1-hydroxy-8-(trifluoromethyl)-3,4-dihydroquinolin-2(1H)-one] yielded an IC50 (Table 5) of 204 nM.

Work on `Cc1ccc2c(c1)N(O)C(=O)C(N)C2` (stereo not drawn) [Example 17] yielded an IC50 (Table 5) of 95.1 nM.

Work on `CN(Cc1ccc2c(c1)C[C@H](N)C(=O)N2O)c1ccccc1` [Example 76, (3S)-3-amino-1-hydroxy-6-{[methyl(phenyl)amino]methyl}-3,4-dihydroquinolin-2(1H)-one] yielded an IC50 (Table 6) of 34.6 nM.

With `NC1Cc2ccc(-c3ccccc3Cl)cc2N(O)C1=O` (stereo not drawn) [Example 45, 3-amino-7-(2-chlorophenyl)-1-hydroxy-3,4-dihydroquinolin-2(1H)-one, trifluoroacetate salt] the IC50 (Table 5) was 235 nM.

`CCc1ccc2c(c1)N(O)C(=O)C(N)C2` (stereo not drawn) [Example 26] was tested, and the IC50 (Table 5) was 88 nM.

Molecule `COc1ccc(-c2ccc3c(c2)C[C@H](N)C(=O)N3O)c(C)c1` [Example 137, (3S)-3-amino-1-hydroxy-6-(4-methoxy-2-methylphenyl)-3,4-dihydroquinolin-2(1H)-one, trifluoroacetate salt] has an IC50 (Table 6) of 69 nM.

`N[C@H]1Cc2cc(-c3ccc(Cl)cc3)ccc2N(O)C1=O` [Example 140, (3S)-3-amino-6-(4-chlorophenyl)-1-hydroxy-3,4-dihydroquinolin-2(1H)-one, trifluoroacetate salt] was tested, and the IC50 (Table 6) was 252 nM.

`COc1ccc(Oc2ccc3c(c2)CC(N)C(=O)N3O)cn1` (stereo not drawn) [Example 171, 3-amino-1-hydroxy-6-[(6-methoxypyridin-3-yl)oxy]-3,4-dihydroquinolin-2(1H)-one, ammonium salt] showed an IC50 (Table 6) of 42.8 nM.

In the case of `NC1Cc2ccc(-c3cccc(Cl)c3)cc2N(O)C1=O` (stereo not drawn) [Example 52, 3-amino-7-(3-chlorophenyl)-1-hydroxy-3,4-dihydroquinolin-2(1H)-one, trifluoroacetate salt], the IC50 (Table 5) is reported as 139 nM.

For `Cc1ncccc1Oc1ccc2c(c1)CC(N)C(=O)N2O` (stereo not drawn) [Example 87], the IC50 (Table 6) was 40.9 nM.

Work on `N[C@H]1Cc2cc(-c3c(F)cccc3F)ccc2N(O)C1=O` [Example 148, (3S)-3-amino-6-(2,6-difluorophenyl)-1-hydroxy-3,4-dihydroquinolin-2(1H)-one, trifluoroacetate salt] yielded an IC50 (Table 6) of 76.1 nM.

In the case of `CN(C)c1ccc(-c2ccc3c(c2)N(O)C(=O)C(N)C3)cn1` (stereo not drawn) [Example 48, 3-amino-7-[6-(dimethylamino)pyridin-3-yl]-1-hydroxy-3,4-dihydroquinolin-2(1H)-one, trifluoroacetate salt], the IC50 (Table 5) is reported as 523 nM.

Molecule `N[C@H]1Cc2cccc(CN3CCOCC3)c2N(O)C1=O` [Example 74, (3S)-3-amino-1-hydroxy-8-(morpholin-4-ylmethyl)-3,4-dihydroquinolin-2(1H)-one, trifluoroacetic acid salt] has an IC50 (Table 6) of 151 nM.

`COc1cccc2c1C[C@H](N)C(=O)N2O` [Example 12, (3S)-3-amino-1-hydroxy-5-methoxy-3,4-dihydroquinolin-2(1H)-one, hydrochloride salt] showed an IC50 (Table 5) of 379 nM.

`NC1Cc2cc(Oc3ccc(OC(F)(F)F)cc3)ccc2N(O)C1=O` (stereo not drawn) [Example 103] was tested, and the IC50 (Table 6) was 77.5 nM.

For `N[C@H]1Cc2cccc(Oc3ccccc3)c2N(O)C1=O` [Example 77], the IC50 (Table 6) was 80.1 nM.

Work on `COc1cccc(Oc2cnc3c(c2)C[C@H](N)C(=O)N3O)c1` [Example 80] yielded an IC50 (Table 6) of 31.1 nM.

With `COc1ccc(-c2ccc3c(c2)C[C@H](N)C(=O)N3O)cc1C` [Example 134, (3S)-3-amino-1-hydroxy-6-(4-methoxy-3-methylphenyl)-3,4-dihydroquinolin-2(1H)-one, trifluoroacetate salt] the IC50 (Table 6) was 199 nM.

`N#Cc1cccc(Oc2ccc3c(c2)C[C@H](N)C(=O)N3O)c1` [Example 70, 3-{[(3S)-3-amino-1-hydroxy-2-oxo-1,2,3,4-tetrahydroquinolin-6-yl]oxy}benzonitrile, hydrochloride salt] showed an IC50 (Table 6) of 24.6 nM.

`N[C@H]1Cc2cc(Cl)cc(C(F)(F)F)c2N(O)C1=O` [Example 35] was tested, and the IC50 (Table 5) was 49.2 nM.

In the case of `COc1ccc(-c2ccc3c(c2)C[C@H](N)C(=O)N3O)cc1` [Example 153, (3S)-3-amino-1-hydroxy-6-(4-methoxyphenyl)-3,4-dihydroquinolin-2(1H)-one, trifluoroacetate salt], the IC50 (Table 6) is reported as 162 nM.

In the case of `NC1Cc2cc(Oc3ccc(F)cc3)ccc2N(O)C1=O` (stereo not drawn) [Example 108], the IC50 (Table 6) is reported as 70.1 nM.

For `COc1cc2c(cc1Cc1ccccc1)C[C@H](N)C(=O)N2O` [Example 75, (3S)-3-amino-6-benzyl-1-hydroxy-7-methoxy-3,4-dihydroquinolin-2(1H)-one, hydrochloride salt], the IC50 (Table 6) was 35.2 nM.

`NC1Cc2cc(Cl)ccc2N(O)C1=O` (stereo not drawn) [Example 16] was tested, and the IC50 (Table 5) was 22.7 nM.

With `CC(C)Oc1ccc(-c2ccc3c(c2)N(O)C(=O)C(N)C3)cc1` (stereo not drawn) [Example 60, 3-amino-1-hydroxy-7-(4-isopropoxyphenyl)-3,4-dihydroquinolin-2(1H)-one, trifluoroacetate salt] the IC50 (Table 5) was 161 nM.

Molecule `NC1Cc2cc(Oc3cccc(OC(F)(F)F)c3)ccc2N(O)C1=O` (stereo not drawn) [Example 94] has an IC50 (Table 6) of 43.9 nM.

With `N[C@H]1Cc2cc(Oc3ccc(F)c(Cl)c3)ccc2N(O)C1=O` [Example 156, (3S)-3-amino-6-(3-chloro-4-fluorophenoxy)-1-hydroxy-3,4-dihydroquinolin-2(1H)-one, trifluoroacetate salt] the IC50 (Table 6) was 86.7 nM.

With `N[C@H]1Cc2cc(-c3ccc(F)cc3)ccc2N(O)C1=O` [Example 142, (3S)-3-amino-6-(4-fluorophenyl)-1-hydroxy-3,4-dihydroquinolin-2(1H)-one, trifluoroacetate salt] the IC50 (Table 6) was 102 nM.

`NC1Cc2cc(Cl)cc(C(F)(F)F)c2N(O)C1=O` (stereo not drawn) [Example 23] gave an IC50 (Table 5) of 65.3 nM.

`N#Cc1ccc(Oc2ccc3c(c2)CC(N)C(=O)N3O)cc1` (stereo not drawn) [Example 99] was tested, and the IC50 (Table 6) was 19.8 nM.

Source: patent US8183238B2, “Bicyclic and tricyclic compounds as KAT II inhibitors” (priority 2009, dated 2012)
